What was measured:
[1] = molecular target: T1, Adenosine receptor A3 (Homo sapiens) (UniProt P0DMS8); assay: Displacement of [3H]NECA from adenosine A3 receptor in human HeLa cells at 10 uM after 180 mins; assay type: cell-based
T1 sequence (whole entry): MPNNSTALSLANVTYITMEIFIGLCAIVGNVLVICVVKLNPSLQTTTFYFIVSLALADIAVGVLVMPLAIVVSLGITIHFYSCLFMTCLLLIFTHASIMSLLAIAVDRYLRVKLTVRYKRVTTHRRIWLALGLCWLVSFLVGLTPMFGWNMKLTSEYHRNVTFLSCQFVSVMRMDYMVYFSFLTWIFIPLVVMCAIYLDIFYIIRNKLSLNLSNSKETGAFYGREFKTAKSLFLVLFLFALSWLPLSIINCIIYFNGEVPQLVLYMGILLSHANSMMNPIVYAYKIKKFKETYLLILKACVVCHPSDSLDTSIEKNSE

Adenosine receptor A2b = molecular target: T2, Adenosine receptor A2b (Homo sapiens, UniProt P29275); assay: Displacement of [3H]DPCPX from human adenosine A2B receptor expressed in HEK293 cells after 30 mins by Scatchard plot analysis; assay type: cell-based
T2 sequence (P29275 whole entry): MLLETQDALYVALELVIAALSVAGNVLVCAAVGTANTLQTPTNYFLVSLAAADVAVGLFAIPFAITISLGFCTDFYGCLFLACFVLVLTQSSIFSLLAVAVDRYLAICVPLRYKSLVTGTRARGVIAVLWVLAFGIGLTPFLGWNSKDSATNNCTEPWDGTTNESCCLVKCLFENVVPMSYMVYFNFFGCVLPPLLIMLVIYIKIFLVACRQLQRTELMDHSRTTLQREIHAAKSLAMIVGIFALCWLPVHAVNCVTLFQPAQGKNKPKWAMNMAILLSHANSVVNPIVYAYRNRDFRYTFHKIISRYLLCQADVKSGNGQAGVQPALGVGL

Adenosine receptor A2a [2] = molecular target: T3, Adenosine receptor A2a (Homo sapiens, UniProt P29274); assay: Displacement of [3H]ZM241385 from adenosine A2A receptor in human HeLa cells at 10 uM after 30 mins; assay type: cell-based
[3] = molecular target: T4, Adenosine receptor A1 (Homo sapiens) (UniProt P30542); assay: Displacement of [3H]DPCPX from human adenosine A1 receptor expressed in CHO cells at 10 uM after 60 mins; assay type: cell-based
T4 sequence (whole entry): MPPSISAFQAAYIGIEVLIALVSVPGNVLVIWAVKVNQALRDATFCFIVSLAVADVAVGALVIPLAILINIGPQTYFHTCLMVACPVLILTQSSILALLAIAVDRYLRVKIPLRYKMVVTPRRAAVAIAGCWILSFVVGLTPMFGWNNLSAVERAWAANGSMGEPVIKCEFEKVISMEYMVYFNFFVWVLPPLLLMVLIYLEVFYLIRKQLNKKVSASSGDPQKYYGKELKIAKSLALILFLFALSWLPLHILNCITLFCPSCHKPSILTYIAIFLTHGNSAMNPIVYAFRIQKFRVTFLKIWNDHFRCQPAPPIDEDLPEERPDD

[4] = molecular target: T5, Adenosine receptor A2b (Homo sapiens) (UniProt P29275); assay: Displacement of [3H]DPCPX from human from adenosine A2B receptor in HEK293 cells at 10 uM after 30 mins by Scatchard plot analysis; assay type: cell-based
T5 sequence (whole entry): T2 sequence (P29275 whole entry)

Cytochrome P450 3A4 = Cytochrome P450 3A4 (Homo sapiens, UniProt P08684); assay: Inhibition of human recombinant CYP3A4 expressed in baculosomes at 100 fold Ki; assay type: ADME; conditions: recombinant enzyme
Cytochrome P450 1A2 = molecular target: T6, Cytochrome P450 1A2 (Homo sapiens, UniProt P05177); assay: Inhibition of human recombinant CYP1A2 expressed in baculosomes at 100 fold Ki; assay type: ADME; conditions: recombinant enzyme
T6 sequence (P05177 whole entry): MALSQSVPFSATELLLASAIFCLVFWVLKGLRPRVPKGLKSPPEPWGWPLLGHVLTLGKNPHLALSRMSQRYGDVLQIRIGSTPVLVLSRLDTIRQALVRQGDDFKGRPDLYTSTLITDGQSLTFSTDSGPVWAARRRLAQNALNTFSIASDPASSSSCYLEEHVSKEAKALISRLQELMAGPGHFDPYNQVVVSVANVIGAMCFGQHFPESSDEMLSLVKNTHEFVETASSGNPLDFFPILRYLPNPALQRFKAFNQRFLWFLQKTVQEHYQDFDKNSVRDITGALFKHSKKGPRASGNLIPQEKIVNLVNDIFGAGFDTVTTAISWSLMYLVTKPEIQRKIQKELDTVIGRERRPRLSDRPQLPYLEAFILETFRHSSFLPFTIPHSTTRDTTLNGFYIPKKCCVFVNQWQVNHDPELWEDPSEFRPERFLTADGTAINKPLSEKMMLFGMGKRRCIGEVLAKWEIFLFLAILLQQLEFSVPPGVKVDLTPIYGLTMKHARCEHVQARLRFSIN

[5] = molecular target: T5, Adenosine receptor A2b (Homo sapiens); assay: Antagonist activity at human adenosine A2B receptor expressed in HEK293 cells assessed as inhibition of NECA-stimulated cAMP accumulation incubated for 15 mins prior to NECA-challenge measured after 15 mins by spectrophotometry; assay type: functional, cell-based
Adenosine receptor A1 = molecular target: T7, Adenosine receptor A1 (Homo sapiens, UniProt P30542); assay: Displacement of [3H]DPCPX from human adenosine A1 receptor expressed in CHO cells after 60 mins; assay type: cell-based
T7 sequence (P30542 whole entry): T4 sequence (whole entry)

Adenosine receptor A3 = molecular target: T8, Adenosine receptor A3 (Homo sapiens, UniProt P0DMS8); assay: Displacement of [3H]NECA from adenosine A3 receptor in human HeLa cells after 180 mins; assay type: cell-based
T8 sequence (P0DMS8 whole entry): T1 sequence (whole entry)

Adenosine receptor A2a [6] = molecular target: T3, Adenosine receptor A2a; assay: Displacement of [3H]ZM241385 from adenosine A2A receptor in human HeLa cells after 30 mins; assay type: cell-based

T3 sequence (P29274 whole entry): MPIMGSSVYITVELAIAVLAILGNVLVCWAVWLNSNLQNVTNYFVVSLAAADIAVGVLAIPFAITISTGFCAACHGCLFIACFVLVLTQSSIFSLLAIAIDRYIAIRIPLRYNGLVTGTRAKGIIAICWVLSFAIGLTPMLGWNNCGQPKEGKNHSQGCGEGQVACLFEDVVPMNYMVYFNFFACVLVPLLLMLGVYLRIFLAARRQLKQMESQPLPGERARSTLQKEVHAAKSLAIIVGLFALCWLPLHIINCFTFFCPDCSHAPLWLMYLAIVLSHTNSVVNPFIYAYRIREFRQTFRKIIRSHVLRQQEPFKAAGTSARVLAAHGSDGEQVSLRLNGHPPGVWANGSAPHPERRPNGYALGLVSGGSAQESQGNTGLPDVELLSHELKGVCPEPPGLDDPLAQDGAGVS
Cytochrome P450 3A4, sequence (P08684 whole entry): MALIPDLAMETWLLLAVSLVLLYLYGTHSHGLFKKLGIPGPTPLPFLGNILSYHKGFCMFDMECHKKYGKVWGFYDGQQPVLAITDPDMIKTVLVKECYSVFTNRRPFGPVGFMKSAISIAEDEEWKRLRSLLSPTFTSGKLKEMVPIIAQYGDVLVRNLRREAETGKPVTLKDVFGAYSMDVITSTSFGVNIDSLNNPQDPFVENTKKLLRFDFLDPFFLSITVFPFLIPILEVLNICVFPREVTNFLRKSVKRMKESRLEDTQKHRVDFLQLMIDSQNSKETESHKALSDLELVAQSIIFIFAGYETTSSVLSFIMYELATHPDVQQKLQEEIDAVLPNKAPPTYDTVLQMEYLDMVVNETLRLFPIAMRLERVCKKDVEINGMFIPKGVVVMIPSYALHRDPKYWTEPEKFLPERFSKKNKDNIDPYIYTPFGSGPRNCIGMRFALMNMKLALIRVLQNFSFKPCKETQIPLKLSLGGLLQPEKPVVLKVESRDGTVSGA

SMILES | inhibition [1] | Ki (Adenosine receptor A2b) | inhibition (Adenosine receptor A2a [2]) | inhibition [3] | inhibition [4] | inhibition (INH) (Cytochrome P450 3A4) | inhibition (INH) (Cytochrome P450 1A2) | Kb [5] | Ki (Adenosine receptor A1) | Ki (Adenosine receptor A3) | Ki (Adenosine receptor A2a [6])
CCOC(=O)C1=C(C)N(C)C(=O)NC1c1ccsc1 (racemic) | 3% | 2970 nM | 24% | 30% |  |  |  |  |  |  | 
CCOC(=O)C1=C(CC)NC(=O)NC1c1ccco1 (racemic) | 3% | 715 nM | 41% | 29% |  |  |  |  |  |  | 
CCCOC(=O)C1=C(C)NC(=O)NC1c1ccco1 (racemic) | 2% | 206 nM | 55% | 43% |  |  |  |  |  |  | 
CC1=C(C(=O)OC(C)C)C(c2ccsc2)NC(=S)N1 (racemic) | 3% | 416 nM | 20% | 16% |  |  |  |  |  |  | 
CC1=C(C(=O)OC(C)C)C(c2cccs2)NC(=O)N1 (racemic) | 14% |  | 19% | 37% | 44% |  |  |  |  |  | 
CCOC(=O)c1c(-c2ccco2)nc(=O)[nH]c1C | 15% | 3430 nM | 11% | 6% |  |  |  |  |  |  | 
CCOC(=O)C1=C(C)N(C)C(=O)NC1c1ccoc1 (racemic) | 1% | 4260 nM | 24% | 17% |  |  |  |  |  |  | 
CCOC(=O)C1=C(C(F)(F)F)NC(=O)NC1c1ccco1 (racemic) | 2% |  | 32% | 15% | 2% |  |  |  |  |  | 
CC1=C(C(=O)OC(C)C)C(c2ccco2)NC(=O)N1 (racemic) | 4% | 40.8 nM | 23% | 18% |  |  |  |  |  |  | 
CC1=C(C(=O)OC(C)C)C(c2cccs2)NC(S)=N1 (racemic) | 20% | 1570 nM | 15% | 23% |  |  |  |  |  |  | 
CC1=C(C(=O)OC(C)C)C(c2cccs2)NC(=O)N1C (racemic) | 18% |  | 24% | 22% | 28% |  |  |  |  |  | 
CC1=C(C(=O)OC(C)C)C(c2ccoc2)NC(=O)N1 (racemic) | 3% | 1490 nM | 26% | 25% |  |  |  |  |  |  | 
CC1=C(C(N)=O)C(c2ccco2)NC(=O)N1 (racemic) | 2% |  | 1% | 2% | 2% |  |  |  |  |  | 
CC1=C(C(=O)OC(C)C)C(c2ccsc2)NC(=O)N1 (racemic) | 5% | 56.6 nM | 25% | 26% |  |  |  |  |  |  | 
CCOC(=O)C1=C(C)NC(=O)NC1c1ccsc1 (racemic) | 11% | 23.6 nM | 34% | 16% |  | Not Active | Not Active | 25.2 nM | > 10 µM | > 10 µM | > 10 µM
CCOC(=O)C1=C(C)NC(=O)NC1c1cccs1 (racemic) | 2% |  | 33% | 3% | 39% |  |  |  |  |  | 
CCOC(=O)C1=C(C)N(C)C(=O)NC1c1ccco1 (racemic) | 25% | 6540 nM | 5% | 17% |  |  |  |  |  |  | 
CCOC(=O)C1=C(C)N=C(S)NC1c1cccs1 (racemic) | 4% | 6250 nM | 23% | 2% |  |  |  |  |  |  | 

SMILES | inhibition [1] | Ki (Adenosine receptor A2b) | inhibition (Adenosine receptor A2a [2]) | inhibition [3] | inhibition [4] | inhibition (INH) (Cytochrome P450 3A4) | inhibition (INH) (Cytochrome P450 1A2) | Kb [5] | Ki (Adenosine receptor A1) | Ki (Adenosine receptor A3) | Ki (Adenosine receptor A2a [6])
CC1=C(C(=O)OC(C)C)C(c2ccoc2)NC(=S)N1 (racemic) | 23% | 194 nM | 33% | 18% |  |  |  |  |  |  | 
CC(=O)C1=C(C)NC(=O)NC1c1ccco1 (racemic) | 14% |  | 21% | 30% | 38% |  |  |  |  |  | 
CCOC(=O)C1=C(C)NC(=O)NC1c1ccoc1 (racemic) | 1% | 39.6 nM | 24% | 21% |  |  |  |  |  |  | 
CC1=C(C(=O)OC(C)(C)C)C(c2ccco2)NC(=O)N1 (racemic) | 7% |  | 7% | 4% | 44% |  |  |  |  |  | 
CC1=C(C(=O)Nc2ccccc2)C(c2ccco2)NC(=O)N1 (racemic) | 5% |  | 7% | 24% | 31% |  |  |  |  |  | 
CCOC(=O)C1=C(C)N=C(S)NC1c1ccsc1 (racemic) | 2% | 1100 nM | 28% | 23% |  |  |  |  |  |  | 
CCOC(=O)C1=C(c2ccccc2)NC(=O)NC1c1ccco1 (racemic) | 2% |  | 17% | 3% | 28% |  |  |  |  |  | 
CCOC(=O)C1=C(C)NC(=S)NC1c1ccoc1 (racemic) | 15% | 43.1 nM | 25% | 18% |  |  |  |  |  |  | 
CCOC(=O)C1=C(C)NC(=O)NC1c1ccco1 (racemic) | 2% | 586 nM | 31% | 15% |  |  |  |  |  |  | 
CC1=C(C(=O)OC(C)C)C(c2ccsc2)NC(=O)N1C (racemic) | 14% | 1810 nM | 20% | 33% |  |  |  |  |  |  | 
CCOC(=O)C1=C(C)NC(=O)N(C(C)=O)C1c1ccco1 (racemic) | 1% | 3110 nM | 24% | 19% |  |  |  |  |  |  | 
CC1=C(C(=O)OC(C)C)C(c2ccoc2)NC(=O)N1C (racemic) | 1% |  | 2% | 23% | 35% |  |  |  |  |  | 
CCOC(=O)C1=C(C)N=C(S)NC1c1ccco1 (racemic) | 5% | 608 nM | 32% | 1% |  |  |  |  |  |  | 
CC1=C(C(=O)OC(C)C)C(c2ccco2)NC(=O)N1C (racemic) | 18% | 1150 nM | 31% | 28% |  |  |  |  |  |  | 
CCOC(=O)C1=C(C)N(C)C(=O)NC1c1cccs1 (racemic) | 6% |  | 3% | 2% | 11% |  |  |  |  |  | 
CC1=C(C(=O)OC(C)C)C(c2ccco2)NC(=S)N1 (racemic) | 4% | 10.2 nM | 18% | 15% |  | Not Active | Not Active | 4.7 nM | > 10 µM | > 10 µM | > 10 µM
CCCC1=C(C(=O)OCC)C(c2ccco2)NC(=O)N1 (racemic) | 19% | 256 nM |  | 50% |  |  |  |  |  |  | 0.602 µM
COC(=O)C1=C(C)NC(=O)NC1c1ccco1 (racemic) | 13% | 2160 nM | 25% | 34% |  |  |  |  |  |  | 
